Laboratory results reported in patent publication US20070184175A1, “CONTINUOUS PRODUCTION OF CEREAL FLOUR AND WHOLE-CEREAL FLOUR FOR GRAIN-BASED FOODS, USING A LOW-MOISTURE PRECOOKING” (priority 2005, published 2007).

Columns and labels:
[1] = Davalos et al. (2004); cited from earlier work
[2] = set-up: concentration or dose not given beside the values; details: Kikuzaki et al. (2002); cited from earlier work
[3] = concentration of Trolox solution with equivalent antioxidant capacity to a 1 mM concentration of the compound; cited from earlier work
[4] = ingestion or topical applications; cited from earlier work
[5] = ABTS radical scavenging assay; format: biochemical; details: Intasa-Chromadex analytical test report, 2006; gallic as positive-control
Description: Kikuzaki et al. (2002) previously published the DPPH radical-scavenging and increasing inhibition effects of ferulic, oryzanol (steryl-ferulate), BHT, α-tocopherol (Trolox) and gallic acid (27%<21%<29%<42%<76%). A TEAC test was defined as the concentration of Trolox solution with equivalent antioxidant capacity to a 1 mM concentration of the compound (Rice-Evans et al. 1996). Similar increasing values were found for α-tocopherol (Trolox), caffeic, ferulic and gallic acid (1.0<1.3<1.9<3.0). It also reflects the ability of hydrogen-donating antioxidants to scavenge the ABTS-radical). However, Davalos et al. (2004) used a different ORAC-FL (Oxygen radical absorbance capacity) test which described the μmol trolox equivalents per μmol of pure compound: BHA (synthetic), ferulic and protocatechuic (similar to gallic) with increasing values of 2.4, 4.5 and 6.7, respectively. This latter assay has been largely applied to assess free radical scavenging capacity of human plasma, proteins, DNA, pure antioxidant compounds and new antioxidants from plant and food extracts (Prior et al. 1999).

Row | IC50 or 50% inhibition value, ABTS radical scavenging [5] | Compound | ORAC-FL [1] | DPPH radical-scavenging inhibition effect [2] | TEAC [3] | acute or chronic side effects [4]
1 |  | COc1ccc(O)c(C(C)(C)C)c1 [BHA] | 2.4 μmol trolox equivalents per μmol of pure compound |  |  | 
2 |  | Cc1cc(C(C)(C)C)c(O)c(C(C)(C)C)c1 [BHT] |  | 29% |  | 
3 |  | O=C(O)/C=C/c1ccc(O)c(O)c1 [caffeic] |  |  | 1.3 | 
4 | 3.3 ppm | COc1cc(/C=C/C(=O)O)ccc1O [ferulic, ferulic acid] | 4.5 μmol trolox equivalents per μmol of pure compound | 27% | 1.9 | No acute or chronic side effects
5 | 1.5 ppm | O=C(O)c1cc(O)c(O)c(O)c1 [gallic, gallic acid] |  | 76% | 3.0 | 
6 |  | O=C(O)c1ccc(O)c(O)c1 [protocatechuic] | 6.7 μmol trolox equivalents per μmol of pure compound |  |  | 
7 |  | Cc1c(C)c2c(c(C)c1O)CC[C@@](C)(CCC[C@H](C)CCC[C@H](C)CCCC(C)C)O2 [α-tocopherol (Trolox), α-tocopherol] |  | 42% | 1.0 | 
8 |  | oryzanol |  | 21% |  | 
